Experimental data as given in publication PMC6631349 (Xenobiotica; the fate of foreign compounds in biological …, 2014).
Where two headings read alike, the source gives them in different places. One block for each compound: values may come before it.

Assays:
UGT1A1 = target: T1, UGT1A1 (Homo sapiens, UniProt P22309); experiment: UGT1A1 supersomes-catalyzed 4-MU glucuronidation inhibition; conditions: recombinant human UGT, mean of triplicate
T1 sequence (P22309 26-533): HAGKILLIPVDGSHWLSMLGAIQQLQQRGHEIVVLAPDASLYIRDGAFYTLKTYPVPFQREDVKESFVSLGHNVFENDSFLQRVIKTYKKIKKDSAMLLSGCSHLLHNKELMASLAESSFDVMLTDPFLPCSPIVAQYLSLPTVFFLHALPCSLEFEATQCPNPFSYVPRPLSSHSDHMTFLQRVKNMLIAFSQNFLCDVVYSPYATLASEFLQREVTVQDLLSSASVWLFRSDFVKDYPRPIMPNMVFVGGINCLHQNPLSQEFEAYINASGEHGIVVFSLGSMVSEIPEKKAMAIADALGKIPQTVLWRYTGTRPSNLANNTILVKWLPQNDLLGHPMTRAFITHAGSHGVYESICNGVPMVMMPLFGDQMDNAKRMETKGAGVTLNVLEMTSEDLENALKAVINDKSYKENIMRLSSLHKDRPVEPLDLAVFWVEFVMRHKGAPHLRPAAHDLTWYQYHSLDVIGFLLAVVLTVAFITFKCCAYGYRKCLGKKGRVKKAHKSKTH

UGT2B4 = target: T2, UGT2B4 (Homo sapiens, UniProt P06133); experiment: UGT2B4 supersomes-catalyzed 4-MU glucuronidation inhibition; conditions: recombinant human UGT, mean of triplicate
T2 sequence (P06133 24-528): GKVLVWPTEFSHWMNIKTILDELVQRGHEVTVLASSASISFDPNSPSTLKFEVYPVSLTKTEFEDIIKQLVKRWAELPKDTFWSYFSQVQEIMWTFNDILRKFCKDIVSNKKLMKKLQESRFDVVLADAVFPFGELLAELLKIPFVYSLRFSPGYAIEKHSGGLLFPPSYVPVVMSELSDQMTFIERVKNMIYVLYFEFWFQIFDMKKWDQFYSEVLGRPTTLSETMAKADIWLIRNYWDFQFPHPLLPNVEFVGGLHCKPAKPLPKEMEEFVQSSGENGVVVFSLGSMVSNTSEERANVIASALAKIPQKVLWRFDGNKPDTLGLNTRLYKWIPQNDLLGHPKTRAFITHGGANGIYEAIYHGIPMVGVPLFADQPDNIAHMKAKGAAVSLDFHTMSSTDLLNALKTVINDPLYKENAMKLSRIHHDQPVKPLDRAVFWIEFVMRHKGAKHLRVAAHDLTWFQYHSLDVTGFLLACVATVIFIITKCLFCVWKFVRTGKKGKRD

UGT2B7 = target: T3, UGT2B7 (Homo sapiens, UniProt P16662); experiment: UGT2B7 supersomes-catalyzed 4-MU glucuronidation inhibition; conditions: for residual activity 2B7: recombinant human UGT, mean of triplicate
T3 sequence (P16662 24-529): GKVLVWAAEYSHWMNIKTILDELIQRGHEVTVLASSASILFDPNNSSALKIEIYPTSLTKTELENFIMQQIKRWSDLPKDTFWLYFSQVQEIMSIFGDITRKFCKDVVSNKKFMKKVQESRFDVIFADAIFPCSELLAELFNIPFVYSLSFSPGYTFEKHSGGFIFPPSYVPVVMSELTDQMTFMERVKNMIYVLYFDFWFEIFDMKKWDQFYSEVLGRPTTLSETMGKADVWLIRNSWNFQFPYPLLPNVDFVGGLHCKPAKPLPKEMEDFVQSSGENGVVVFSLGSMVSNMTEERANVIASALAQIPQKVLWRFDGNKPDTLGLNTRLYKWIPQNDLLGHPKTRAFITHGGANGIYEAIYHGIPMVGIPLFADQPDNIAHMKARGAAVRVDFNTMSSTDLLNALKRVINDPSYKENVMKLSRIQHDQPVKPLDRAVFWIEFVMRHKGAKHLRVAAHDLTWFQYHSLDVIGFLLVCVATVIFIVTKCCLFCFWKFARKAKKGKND

UGT1A6 = target: T4, UGT1A6 (Homo sapiens, UniProt P19224); conditions: for residual activity 1A6: recombinant human UGT, mean of triplicate
T4 sequence (P19224 27-532): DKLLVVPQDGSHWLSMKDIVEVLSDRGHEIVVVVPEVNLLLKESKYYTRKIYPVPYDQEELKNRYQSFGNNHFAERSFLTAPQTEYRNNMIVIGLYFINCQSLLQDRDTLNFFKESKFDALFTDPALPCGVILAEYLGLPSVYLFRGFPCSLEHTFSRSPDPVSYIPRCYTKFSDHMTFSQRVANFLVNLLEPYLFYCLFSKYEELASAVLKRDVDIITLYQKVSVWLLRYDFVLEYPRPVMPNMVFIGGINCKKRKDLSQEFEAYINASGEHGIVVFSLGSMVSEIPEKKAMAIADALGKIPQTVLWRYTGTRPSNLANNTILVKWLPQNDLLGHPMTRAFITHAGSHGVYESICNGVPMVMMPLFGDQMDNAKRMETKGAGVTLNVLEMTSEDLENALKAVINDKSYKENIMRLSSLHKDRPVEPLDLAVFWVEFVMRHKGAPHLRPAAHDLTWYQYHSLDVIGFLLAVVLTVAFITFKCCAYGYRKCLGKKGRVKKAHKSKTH

UGT1A8 = target: T5, UGT1A8 (Homo sapiens, UniProt Q9HAW9); conditions: for residual activity 1A8: recombinant human UGT, mean of triplicate
T5 sequence (Q9HAW9 26-530): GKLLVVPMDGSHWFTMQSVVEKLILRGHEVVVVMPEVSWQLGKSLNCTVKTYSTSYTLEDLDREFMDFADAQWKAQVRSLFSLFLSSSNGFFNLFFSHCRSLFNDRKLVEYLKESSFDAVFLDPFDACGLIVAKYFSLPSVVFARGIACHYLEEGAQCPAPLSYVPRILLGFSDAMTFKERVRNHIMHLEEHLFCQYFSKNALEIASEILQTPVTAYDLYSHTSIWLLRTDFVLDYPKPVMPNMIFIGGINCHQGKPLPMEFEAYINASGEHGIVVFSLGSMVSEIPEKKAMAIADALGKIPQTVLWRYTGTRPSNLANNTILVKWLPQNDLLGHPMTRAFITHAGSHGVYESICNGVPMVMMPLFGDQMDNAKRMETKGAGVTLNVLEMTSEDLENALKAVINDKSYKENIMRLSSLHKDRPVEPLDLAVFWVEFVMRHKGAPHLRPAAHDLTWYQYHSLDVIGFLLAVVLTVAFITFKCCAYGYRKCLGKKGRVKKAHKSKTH

[1] = Dixon and Lineweaver-Burk plots, 4-MU glucuronidation

SMILES: CCCCCCCCCCC(=O)OC[C@H](COP(=O)([O-])OCC[N+](C)(C)C)OC(=O)CCCCCCCCCC [PC 11:0, 11:0]
- residual activity 1A1 (UGT1A1; 50 μM PC components): 232.3%
- residual activity 2B4 (UGT2B4; 50 μM PC components): 181.0%
- residual activity 2B7 (UGT2B7; 50 μM PC components): 100.5%
- residual activity 1A6 (UGT1A6; 50 μM PC components): 35.0%
- residual activity 1A8 (UGT1A8; 50 μM PC components): 116.8%

SMILES: CCCCCCCC(=O)OC[C@H](COP(=O)([O-])OCC[N+](C)(C)C)OC(=O)CCCCCCC [PC 8:0, 8:0]
- residual activity 1A1 (UGT1A1; 50 μM PC components): 155.6%
- residual activity 2B4 (UGT2B4; 50 μM PC components): 173.1%
- residual activity 2B7 (UGT2B7; 50 μM PC components): 71%
- inhibition percentage of UGT1A6 activity (UGT1A6; 50 μM): 74.4%
- residual activity 1A6 (UGT1A6; 50 μM PC components): 25.6%
- residual activity 1A8 (UGT1A8; 50 μM PC components): 78.3%

SMILES: CCCCCCCCCCCC(=O)OC[C@H](COP(=O)([O-])OCC[N+](C)(C)C)OC(=O)CCCCCCCCCCC [PC 12:0, 12:0]
- residual activity 1A1 (UGT1A1; 50 μM PC components): 208.8%
- residual activity 2B4 (UGT2B4; 50 μM PC components): 182.7%
- residual activity 2B7 (UGT2B7; 50 μM PC components): 85.8%
- residual activity 1A6 (UGT1A6; 50 μM PC components): 40.8%
- residual activity 1A8 (UGT1A8; 50 μM PC components): 114.1%

SMILES: CCCCCCCCCC(=O)OC[C@@H](O)COP(=O)([O-])OCC[N+](C)(C)C [LPC 10:0]
- residual activity 1A1 (UGT1A1; 50 μM LPC components): 170.2%
- residual activity 2B4 (UGT2B4; 50 μM LPC components): 208.4%
- residual activity 2B7 (UGT2B7; 50 μM LPC components): 77.3%
- residual activity 1A6 (UGT1A6; 50 μM LPC components): 65.7%
- residual activity 1A8 (UGT1A8; 50 μM LPC components): 100.7%

SMILES: CCCCCCCCCCCCCCCCCC(=O)OC[C@@H](O)COP(=O)([O-])OCC[N+](C)(C)C [LPC 18:0]
- residual activity 1A1 (UGT1A1; 50 μM LPC components): 160.5%
- residual activity 2B4 (UGT2B4; 50 μM LPC components): 280.4%
- residual activity 2B7 (UGT2B7; 50 μM LPC components): 39.3%
- residual activity 1A6 (UGT1A6; 50 μM LPC components): 4.3%
- inhibition kinetic type towards UGT1A6 (UGT1A6; [1]): non-competitively inhibited
- residual activity 1A8 (UGT1A8; 50 μM LPC components): 1.2%
- inhibition kinetic type towards UGT1A8 (UGT1A8; [1]): competitive inhibition

SMILES: CCCCCCCCCCCCC(=O)OC[C@@H](O)COP(=O)([O-])OCC[N+](C)(C)C [LPC 13:0]
- residual activity 1A1 (UGT1A1; 50 μM LPC components): 160.6%
- residual activity 2B4 (UGT2B4; 50 μM LPC components): 239.4%
- residual activity 2B7 (UGT2B7; 50 μM LPC components): 79.9%
- residual activity 1A6 (UGT1A6; 50 μM LPC components): 83.8%
- residual activity 1A8 (UGT1A8; 50 μM LPC components): 101.6%

SMILES: CCCCCCCCCCC(=O)OC[C@@H](O)COP(=O)([O-])OCC[N+](C)(C)C [LPC 11:0]
- residual activity 1A1 (UGT1A1; 50 μM LPC components): 167.3%
- residual activity 2B4 (UGT2B4; 50 μM LPC components): 217.6%
- residual activity 2B7 (UGT2B7; 50 μM LPC components): 78.0%
- residual activity 1A6 (UGT1A6; 50 μM LPC components): 65.7%
- residual activity 1A8 (UGT1A8; 50 μM LPC components): 124.0%

SMILES: CCCCCCCCCCCCCCCCC(=O)OC[C@@H](O)COP(=O)([O-])OCC[N+](C)(C)C [LPC 17:0]
- residual activity 1A1 (UGT1A1; 50 μM LPC components): 167.6%
- residual activity 2B4 (UGT2B4; 50 μM LPC components): 333.4%
- residual activity 2B7 (UGT2B7; 50 μM LPC components): 81.5%
- residual activity 1A6 (UGT1A6; 50 μM LPC components): 8.5%
- residual activity 1A8 (UGT1A8; 50 μM LPC components): 2.2%

More lines, now with the values ahead:

- residual activity 1A1 (UGT1A1; 50 μM PC components): 170.3%
- residual activity 2B4 (UGT2B4; 50 μM PC components): 60.0%
- residual activity 2B7 (UGT2B7; 50 μM PC components): 33.0%
- residual activity 1A6 (UGT1A6; 50 μM PC components): 60.2%
- residual activity 1A8 (UGT1A8; 50 μM PC components): 38.0%
SMILES: CCCCCCCCCCCCCCCCCCCCCC(=O)OC[C@H](COP(=O)([O-])OCC[N+](C)(C)C)OC(=O)CCCCCCCCCCCCCCCCCCCCC [PC 22:0, 22:0]

- residual activity 1A1 (UGT1A1; 50 μM PC components): 184.9%
- residual activity 2B4 (UGT2B4; 50 μM PC components): 83.4%
- inhibition percentage of UGT2B7 activity (UGT2B7; 50 μM): 76.9%
- residual activity 2B7 (UGT2B7; 50 μM PC components): 23.1%
- residual activity 1A6 (UGT1A6; 50 μM PC components): 49.1%
- residual activity 1A8 (UGT1A8; 50 μM PC components): 60.6%
SMILES: CCCCCCCCCCCCCCCCCCC(=O)OC[C@H](COP(=O)([O-])OCC[N+](C)(C)C)OC(=O)CCCCCCCCCCCCCCCCCC [PC 19:0, 19:0]

- residual activity 1A1 (UGT1A1; 50 μM PC components): 133.7%
- residual activity 2B4 (UGT2B4; 50 μM PC components): 168.3%
- residual activity 2B7 (UGT2B7; 50 μM PC components): 69.5%
- residual activity 1A6 (UGT1A6; 50 μM PC components): 98.9%
- residual activity 1A8 (UGT1A8; 50 μM PC components): 93.5%
SMILES: CCCCCCCCCCCCCCCCCCCCCCC(=O)OC[C@H](COP(=O)([O-])OCC[N+](C)(C)C)OC(=O)CCCCCCCCCCCCCCCCCCCCCC [PC 23:0, 23:0]

- residual activity 1A1 (UGT1A1; 50 μM PC components): 208.2%
- residual activity 2B4 (UGT2B4; 50 μM PC components): 93.4%
- residual activity 2B7 (UGT2B7; 50 μM PC components): 36.0%
- residual activity 1A6 (UGT1A6; 50 μM PC components): 50.7%
- residual activity 1A8 (UGT1A8; 50 μM PC components): 84.1%
SMILES: CCCCCCCCCCCCCCCCCC(=O)OC[C@H](COP(=O)([O-])OCC[N+](C)(C)C)OC(=O)CCCCCCCCCCCCCCCCC [PC 18:0, 18:0]

- residual activity 1A1 (UGT1A1; 50 μM PC components): 208.9%
- residual activity 2B4 (UGT2B4; 50 μM PC components): 179.0%
- residual activity 2B7 (UGT2B7; 50 μM PC components): 66.1%
- residual activity 1A6 (UGT1A6; 50 μM PC components): 54.3%
- residual activity 1A8 (UGT1A8; 50 μM PC components): 110.2%
SMILES: CCCCCCCCCCCCCC(=O)OC[C@H](COP(=O)([O-])OCC[N+](C)(C)C)OC(=O)CCCCCCCCCCCCC [PC 14:0, 14:0]
